Measured values published in patent US12071404B2, “Aza (indole)-, benzothiophene-, and benzofuran-3-sulfonamides” (UCB Pharma GmbH, priority 2016, dated 2024).

Assays:
[1] = Determination of plasma and brain exposure (brain/plasma ratio, brain Kp); type: in vivo; details: male Sprague Dawley rats, 3 mg/kg intraperitoneal, approximately 45 minutes after administration, FIG. 3
Method: Male Sprague Dawley rats (n=2 per time point) were used to determine the brain penetration of the compounds at 15, 45 and 120 min after 3 mg/kg of intraperitoneal administration.
At each time point, following anesthesia (inhalation of isoflurane) and blood collection (1 mL cardiac puncture into tubes containing K2EDTA) rats were exsanguinated and the brain perfused via the left ventricle (50 mL of heparinized NaCl 0.9% (0.15 UI/mL) flow 50 mL/min).
Brain was collected and weighed. Plasma was obtained from blood samples by centrifugation (3000 g for 15 min at 4° C.). Brain and plasma samples were frozen until time of analysis.
At the time of analysis, brain samples were homogenized in plasma (1:4 v:v) and together with plasma samples, following protein precipitation, were analyzed by HPLC/MS-MS analysis.

GPR17 [2] = target: T1, GPR17 (Homo sapiens, UniProt Q13304); experiment: Calcium mobilization functional assay (GPR17 Ca2+ assay); type: cell-based; set-up: host or cells: Flp-In T-REx CHO; details: CHO hGPR17 cells, inhibition of 50 nM MDL29,951, Calcium 5 dye, FLIPR; read-out: Ca2+ assay pIC50 (converted)
Outline: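 Flp-In T-REx CHO cells stably expressing human GPR17, doxycycline-induced (1 μg/mL, 16-20 h), loaded 60 min with Calcium 5 dye. Inhibition by varying test-compound concentrations of the 50 nM MDL29,951 agonist response was read by fluorescence over time at room temperature. pIC50 came from 4-parameter logistic fitting.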
Target sequence in this assay (Q13304 whole entry): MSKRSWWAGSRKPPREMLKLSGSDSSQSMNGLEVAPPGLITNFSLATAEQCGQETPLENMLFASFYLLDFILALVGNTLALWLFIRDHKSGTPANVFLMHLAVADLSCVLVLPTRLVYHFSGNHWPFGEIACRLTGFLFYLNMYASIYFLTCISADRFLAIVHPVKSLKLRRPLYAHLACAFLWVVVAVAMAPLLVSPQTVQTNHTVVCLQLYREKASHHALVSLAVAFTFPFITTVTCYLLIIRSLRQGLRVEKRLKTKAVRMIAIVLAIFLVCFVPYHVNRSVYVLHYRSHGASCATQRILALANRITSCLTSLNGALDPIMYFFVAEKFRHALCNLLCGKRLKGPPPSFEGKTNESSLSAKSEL

GPR17 [3] = target: T1, GPR17; experiment: cAMP accumulation functional assay (HTRF, Schild analysis); type: cell-based; set-up: host or cells: Flp-In T-REx CHO; details: CHO hGPR17 cells, Schild analysis vs MDL29,951, 5 μM forskolin, read-out: cAMP assay pA2 (converted)
Outline: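 CHO Flp-In T-REx cells with doxycycline-induced human GPR17 were preincubated 30 min at room temperature in HBSS-HEPES pH 7.4 with antagonist. cAMP was then measured by HTRF after 60 min. MDL29,951 pEC50 shifts gave dose ratios, and Schild analysis gave pA2.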
Target sequence in this assay (Q13304 whole entry): as above

GPR17 [4] = target: T1, GPR17; details: activating ligands for GPR17; cited from earlier work
Target sequence in this assay (Q13304 whole entry, species assumed): as the sequence (Q13304 whole entry) above

[5] = test system: primary oligodendrocyte progenitor cells (OPCs); experiment: MBP fiber plates oligodendrocyte maturation/myelination assay; type: cell-based, rat; details: OPCs on aligned fiber plates, 1 μM test compound, 6 days, FIG. 2
Method: Primary oligodendrocyte progenitor cells (OPCs) were isolated from the forebrains of Wistar rat pups at postnatal day 0 to 2. Cerebra were mechanically dissociated with a syringe and two different hollow needles (first 1.2×40 and then 0.60×30). Clump-free cell suspension was filtered through a 70-μm cell strainer and plated into poly-D-lysine-coated 75-cm^2 culture flasks in DMEM supplemented with 10% (v/v) heat-inactivated fetal calf serum, penicillin (100 units/mL), and streptomycin (0.1 mg/mL) with medium exchanged every second day. After 8 to 11 days at 37° C. in a humidified atmosphere of 5% CO2, mixed cultures were shaken at 240 rpm for 14-24 h to detach OPCs from astrocytes and microglia. To further enrich for OPCs, the suspension was plated onto uncoated Petri dishes for 45 min. Then, OPCs were seeded into poly-L-ornithine-coated plates and maintained at 37° C. in a humidified atmosphere of 5% CO2 in proliferating Neurobasal medium supplemented with 2% (v/v) B27, 2 mM GlutaMAX, 100 units/mL penicillin, 0.1 mg/mL streptomycin, 10 ng/mL PDGF-AA, and 10 ng/mL basic FGF changing the medium every second day.
The effects of negative modulators of GPR17 on primary oligodendrocytes maturation/myelination can be assessed in vitro by immunoassays using antibodies directed against Myelin Basic Protein (MBP), as marker for mature oligodendrocytes. […]

[6] = cited from earlier work
[7] = in vivo; cited from earlier work
[8] = test system: cuprizone-induced demyelination; experiment: Acute cuprizone mice model (PLP immunohistochemistry in corpus callosum); type: in vivo, C57BI/6 J mice; details: oral, daily, 6 mg/kg and 20 mg/kg, vs vehicle p<0.01, FIG. 5
[9] = exposure to air and light; cited from earlier work

O=S(=O)(Nc1ccc(F)cc1F)c1c[nH]c2cc(Cl)ccc12 [Compound I-1, 6-chloro-N-(2,4-difluorophenyl)-1H-indole-3-sulfonamide]
brain concentrations versus plasma exposure [1]: displayed brain concentrations paralleling plasma exposure | IC50 (GPR17 [2]): > 31.6 nM | Kb (GPR17 [3]): > 31.6 nM

NCC(=O)CCC(=O)O [Compound 5-ALA, 5 amino levulinic acid]
amounts needed in the GPR17 assays (reported affinity quite low) (GPR17 [4]): three digit micromolar range

N#Cc1ccc(NS(=O)(=O)c2c[nH]c3cc(Cl)ccc23)c(F)c1 [Compound I-116, 6-chloro-N-(4-cyano-2-fluorophenyl)-1H-indole-3-sulfonamide]
myelin sheath length (myelinated fibers by fiber length) [5]: induced longer myelin sheaths | IC50 (GPR17 [2]): < 3.16 nM | Kb (GPR17 [3]): < 3.16 nM

CC(C)(O)c1ccccc1CC[C@@H](SCC1(CC(=O)O)CC1)c1cccc(/C=C/c2ccc3ccc(Cl)cc3n2)c1 [montekulast, Montelukast]
protein binding [6]: high protein binding | brain penetration [7]: poor brain penetration

O=C(Nc1cccc2c(=O)cc(-c3nnn[nH]3)oc12)c1ccc(OCCCCc2ccccc2)cc1 [pranlukast]
protein binding [6]: high protein binding | brain penetration [7]: poor brain penetration

O=S(=O)(Nc1cc(F)c(Br)cc1F)c1c[nH]c2nc(Cl)ccc12 [Compound I-228, N-(4-bromo-2,5-difluorophenyl)-6-chloro-1H-pyrrolo[2,3-b]pyridine-3-sulfonamide]
reappearance of myelin-associated proteins (PLP levels in corpus callosum) [8]: accelerates the reappearance of the myelin-associated proteins

NCc1[nH]cc(CCC(=O)O)c1CC(=O)O [PBG, porphobilinogen]
amounts needed in the GPR17 assays (reported affinity quite low) (GPR17 [4]): mM range | chemical stability [9]: rapidly decomposes after exposure to air and light

O=S(=O)(Nc1ccc(Cl)cc1F)c1c[nH]c2cc(Cl)ccc12 [Compound I-141, 6-chloro-N-(4-chloro-2-fluorophenyl)-1H-indole-3-sulfonamide]
IC50 (GPR17 [2]): 3.16 to 31.6 nM | Kb (GPR17 [3]): < 3.16 nM

O=S(=O)(Nc1cc(Cl)ccc1F)c1c[nH]c2cc(Cl)ccc12 [Compound I-4, 6-chloro-N-(5-chloro-2-fluorophenyl)-1H-indole-3-sulfonamide]
IC50 (GPR17 [2]): > 31.6 nM | Kb (GPR17 [3]): 3.16 to 31.6 nM
